Results as given in patent publication US8476455B2, “1-N-phenyl-amino-1h-imidazole derivatives and pharmaceutical compositions containing them” (Laboratoire Theramex, priority 2003, dated 2013).

Experiments:
[1] = system: aromatase; experiment: Inhibition of estradiol peak, in vivo aromatase inhibition model; parameters: species or system rat; details: female rats, 24 hours after one oral administration
Description: One hundred IOPS Wistar female rats, weighing 180 to 200 g, were accommodated by four in stainless steel mesh cages. […] Vaginal smears were performed for each animal, each morning, in order to establish the different phases of cycle. […] Starting at 4.00 pm, animals received an oral administration of formulations. 24 hours later, samples of serum were collected and estradiol level were determined as previously described (Table 4).

[2] = target: T1, human steroid sulfatase (Homo sapiens, UniProt P08842); experiment: Dual aromatase and steroid sulfatase activities in JEG-3 cells: sulfatase readout; assay type: cell-based; details: footnote c: dual aromatase and sulfatase activity, nd: not detected, read-out: Sulfatase activity IC50 (nM) ± S.E.M.
T1 construct: The JEG-3 cell line is intrinsically very rich in human estrone sulfatase; endogenous in cells; host or cells: JEG-3 (human placental choriocarcinoma)
T1 sequence (P08842 22-583): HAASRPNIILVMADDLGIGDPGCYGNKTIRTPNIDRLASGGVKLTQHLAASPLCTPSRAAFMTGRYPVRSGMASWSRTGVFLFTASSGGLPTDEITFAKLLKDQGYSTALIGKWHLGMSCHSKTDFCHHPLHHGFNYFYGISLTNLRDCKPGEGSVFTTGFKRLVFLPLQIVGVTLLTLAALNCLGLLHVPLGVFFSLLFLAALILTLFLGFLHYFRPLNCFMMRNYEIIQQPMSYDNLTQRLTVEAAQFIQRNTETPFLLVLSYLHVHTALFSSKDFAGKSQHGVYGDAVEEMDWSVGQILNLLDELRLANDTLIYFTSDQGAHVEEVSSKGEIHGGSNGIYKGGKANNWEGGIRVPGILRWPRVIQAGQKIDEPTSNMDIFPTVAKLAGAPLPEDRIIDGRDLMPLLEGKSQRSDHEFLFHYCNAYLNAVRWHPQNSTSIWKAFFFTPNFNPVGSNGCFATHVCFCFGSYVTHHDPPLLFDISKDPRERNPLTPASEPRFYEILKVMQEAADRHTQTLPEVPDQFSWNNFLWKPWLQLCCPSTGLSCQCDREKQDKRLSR
Description: The JEG-3 cell line is intrinsically very rich in human estrone sulfatase and therefore is a useful biological system to evaluate new steroid sulfatase inhibitors in vitro. Assays were carried out with cells in logarithmic growth phase on 96-well microplates. 24 h before studies, cells were seeded in decomplemented fetal calf serum (dFCS) supplemented medium. The medium was removed 24 h later and cells were rinsed with PBS to eliminate any trace of dFCS. Then, ^3H-E1S was added in dFCS free medium, followed by test compounds at concentrations ranging from 10^−12 M to 10^−5 M. After 4 h of treatment, the medium was transferred into 96-deep-well microplates and centrifuged at 200×g for 10 min to pellet cells before toluene extraction. A fraction of the medium was used for toluene extraction in order to separate the conjugated substrate from non-conjugated products. The radioactivity in the toluene phase was measured by liquid scintillation counting. In parallel, after cell solubilization in a ethylenediamine tetraacetate solution, DNA content was measured by a standard fluorimetric method using the Hoechst 33258 fluorochrome. Finally, estrone sulfatase activity was expressed in pmoles of ^3H-E1+^3H-E2 formed/4 hours/mg DNA and estrone sulfatase inhibition as a percentage of control activity without inhibitor.
In order to evaluate the inhibitory potency of DASI compounds in parallel on both human aromatase and steroid sulfatase activities, a new in vitro model was set up using JEG-3 cells. The experimental conditions of the steroid sulfatase model previously described was adopted with slight modifications: the presence of the two substrates ^3-HE1S and 1β-^3H-androstenedione into the medium and an incubation period of 2 hours. Results were expressed in pmoles of product formed (^3H-E1+^3H-E2 or ^3H2O)/2 hours/mg DNA (Table 1).

[3] = system: MCF7 cells; experiment: ER+ human breast tumor tissue xenografted into nude rats; assay type: in vivo, nude rat (Rnu/Rnu); details: for Volume variations (expressed as % of E1S positive control group): oral 5 mg/kg/day, nude rats supplemented with E1S
Description: MCF7 cells (ATCC), derived from human breast adenocarcinoma, were injected subcutaneously in ovariectomized athymic nude mice supplemented with a daily administration of subcutaneous estradiol. Xenograft volumes were determined weekly. After 8 weeks, tumor volumes reached 1000 mm3, providing 500 mg samples of estrogen responsive tissues for each animals. At this time each tumor was sliced and regrafted into naïve ovariectomized nude rat (Rnu/Rnu). Then animals were treated with estrone sulfate as precursor of estradiol by the steroid sulfatase pathway. When tumor volumes reached significant increase, distinct from the placebo, animals were randomized and separated in two groups. The first group was treated with Ex 45 and supplemented with daily administration of estrone sulfate. The second one was sham administered with the vehicle and supplemented with the same dosage of estrone sulfate. Ex 45 was orally administered at 5 mg/kg/day for 5 weeks. Xenografts were measured weekly by electronic Caliper and compared to the estrone sulfate group. (Table 5).

[4] = system: steroid sulfatase; experiment: Anti uterotrophic/anti steroid sulfatase activity in vivo; parameters: species or system rat
Description: Wistar female rats were ovariectomized and left to rest for 4 weeks. Prior to treatment, the absence of cyclicity was checked by vaginal smears. Animals were supplemented with estrone sulfate (EIS) at 50 μg/kg/day s.c., alone or combined with oral administration of potential sulfatase inhibitors, at 1 mg/kg/day for 4 days. The uteri were removed, freed of adjacent tissue and wet weighed (Table 3).
Estrone sulfatase activity is measured according to the method described by Purohit et al., with slight modifications. Briefly, uteri were thawed, weighed and homogenized. Aliquots of the supernatant were treated with dextran-coated charcoal and assayed for sulfatase. E1S activity is assessed after 30 min of incubation with 5 nM of ^3H-E1S and 20 μM of unlabelled E1S as substrate. Estrone sulfatase activity is expressed as pmol/h/mg protein and reported as percentage of inhibition vs E1S; for uterus weights, results are expressed as % of inhibition of the E1S induced stimulation

[5] = target: human carbonic anhydrase II (Homo sapiens, UniProt P00918); experiment: Human carbonic anhydrase II activity (p-nitrophenyl acetate, colorimetric); assay type: biochemical; details: read-out: Human carbonic anhydrase II activity IC50 (nm) ± S.E.M.
Description: Briefly, in this assay, human carbonic anhydrase II catalyses the conversion of p-nitrophenyl acetate into pnitrophenol. The potential inhibitory effect of test compounds was evaluated by colorimetric determination of prnitrophenol produced during the enzymatic reaction. The optical density levels obtained without inhibitor will be referred to as “total activity”. The levels obtained without Inhibitor and without the enzyme will be referred to as “blank” in order to assess any interference with the substrate during the assay (Table 2).

IC50 [2]: ~10 nM
melting point: 145 °C
IC50 [5]: 16.2 ± 3.3 nM
SMILES: Cl.N#Cc1ccc(N(Cc2ccc(OS(N)(=O)=O)c(Br)c2)n2ccnc2)cc1 [Ex 45, Sulfamic acid 2-bromo-4-{[N-(4-cyanophenyl)-N-(1H-imidazol-1yl)amino]methyl}phenyl ester, hydrochloride]
% inhibition (estradiol peak) [1]: 28%
Volume variations (expressed as % of E1S positive control group) ([3]; Day 7): 0%
Volume variations (expressed as % of E1S positive control group) ([3]; Day 28): −26%
Volume variations (expressed as % of E1S positive control group) ([3]; Day 35): −44%
Volume variations (expressed as % of E1S positive control group) ([3]; Day 42): −39%
decrease in tumor volume ([3]; at the end of the experiments, after five weeks of daily treatment, 5 mg/kg/day oral): 40%
tumor volumes (in words) ([3]; vs groups only treated with estrone sulfate (E1S)): did not increased
inhibition of E1S (sulfatase) concluded from uterus weight inhibition ([4]; concluded from linear correlation between sulfatase inhibition and uterus weight inhibition (WO 2004/101545)): > 90%
% inhibition (uterus weight) ([4]; ovariectomized Wistar female rats, E1S 50 μg/kg/day s.c., oral 1 mg/kg/day for 4 days, % of inhibition of the E1S induced stimulation): 70%
